Assay results published in patent US6552080B1, “Fungicidal compounds having a fluorovinyl-or fluoropropenyl-oxyphenyloxime moiety and process for the preparation thereof” (Korea Research Institute of Chemical Technology, priority 1999, dated 2003).
Where two headings read alike, the source gives them in different places.

Columns and labels:
Rhizoctonia solani AG-1 = assay: Fungicidal activity against Rice Sheath Blight (RSB) disease; settings: Rice Sheath Blight
Puccinia recondita = assay: Fungicidal activity against Wheat Leaf Rust (WLR) disease; type: in vivo; settings: Wheat Leaf Rust
Phytophthora infestans = type: in vivo; settings: Tomato Late Blight
Erysiphae graminis = assay: Fungicidal activity against Barley Powdery Mildew (BPM) disease; type: in vivo; settings: Barley Powdery Mildew
Botrytis cinerae = assay: Fungicidal activity against Cucumber Gray Mold Rot (CGM) disease; type: in vivo; settings: Cucumber Gray Mold Rot; concentration 50 ppm
Method: Botrytis cinerae, which was isolated from cucumber infected thereby, was inoculated on a PDA agar medium and cultured under a 12L/12D cycle at 25° C. for 15 days to form spore. The spores were scraped, filtered through a gauze and then suspended in potato dextrose liquid medium at a concentration of 1×10^6 spore/ml. The spore suspension was sprayed on a cucumber plant having one leaf. The cucumber plant was held in a humidified room at 20° C. for 3 days. L.A. on a leaf was measured to calculate an C.V.

[1] = system: Pyricularia oryzae Carvara KA301; type: in vivo; settings: Rice Blast

SMILES | RSB (Fungicidal Activities, C.V.) (Rhizoctonia solani AG-1; concentration 50 ppm) [%] | WLR (Fungicidal Activities, C.V.) (Puccinia recondita; concentration 2 ppm) [%] | WLR (Fungicidal Activities, C.V.) (Puccinia recondita; concentration 50 ppm) [%] | TLB (Fungicidal Activities, C.V.) (Phytophthora infestans; concentration 50 ppm) [%] | BPM (Fungicidal Activities, C.V.) (Erysiphae graminis; concentration 2 ppm) [%] | BPM (Fungicidal Activities, C.V.) (Erysiphae graminis; concentration 50 ppm) [%] | CGM (Fungicidal Activities, C.V.) (Botrytis cinerae) [%] | RCV (Fungicidal Activities, C.V.) ([1]; concentration 2 ppm) [%] | RCV (Fungicidal Activities, C.V.) ([1]; concentration 50 ppm) [%] | RSB (Fungicidal Activities, C.V.) (Rhizoctonia solani AG-1; concentration 2 ppm) [%] | RSB (Fungicidal Activities, C.V.) (Rhizoctonia solani AG-1; concentration 10 ppm) [%] | WLR (Fungicidal Activities, C.V.) (Puccinia recondita; concentration 10 ppm) [%] | TLB (Fungicidal Activities, C.V.) (Phytophthora infestans; concentration 2 ppm) [%] | TLB (Fungicidal Activities, C.V.) (Phytophthora infestans; concentration 10 ppm) [%] | BPM (Fungicidal Activities, C.V.) (Erysiphae graminis; concentration 10 ppm) [%] | RCV (Fungicidal Activities, C.V.) ([1]; concentration 10 ppm) [%]
CNC(=O)C(=NOC)c1ccccc1CON=Cc1cccc(OC(F)=Cc2ccc(C)c(C)c2)c1 [Compound 32] | 41 | 3 | 99 | 0 | 0 | 100 | 8 | 99 | 100 | – | – | – | – | – | – | –
CCc1ccc(C=C(F)Oc2cccc(C=NOCc3ccccc3C(=NOC)C(=O)NC)c2)cc1 [Compound 33] | 17 | 10 | 96 | 0 | 0 | 100 | 0 | 97 | 96 | – | – | – | – | – | – | –
CNC(=O)C(=NOC)c1ccccc1CON=Cc1cccc(OC(F)=Cc2cccc(OC)c2)c1 [Compound 35] | 52 | 83 | 97 | 0 | 0 | 100 | 0 | 97 | 100 | – | – | – | – | – | – | –
CCOc1ccc(C=C(F)Oc2cccc(C=NOCc3ccccc3C(=NOC)C(=O)NC)c2)cc1 [Compound 36] | 0 | 0 | 93 | 0 | 0 | 100 | 0 | 88 | 100 | – | – | – | – | – | – | –
CNC(=O)C(=NOC)c1ccccc1CON=Cc1cccc(OC(F)=Cc2ccc(F)cc2)c1 [Compound 37] | 29 | 37 | 98 | 0 | 42 | 100 | 0 | 98 | 100 | – | – | – | – | – | – | –
CNC(=O)C(=NOC)c1ccccc1CON=Cc1cccc(OC(F)=Cc2cccc(Cl)c2)c1 [Compound 38] | 64 | 99 | 100 | 0 | 87 | 100 | 0 | 97 | 100 | – | – | – | – | – | – | –
CNC(=O)C(=NOC)c1ccccc1CON=Cc1cccc(OC(F)=Cc2ccc3c(c2)OCO3)c1 [Compound 39] | 58 | 0 | 100 | 83 | 0 | 100 | 0 | 93 | 100 | – | – | – | – | – | – | –
CO/C=C(/C(=O)OC)c1ccccc1CON=C(C)c1cccc(OC(F)=Cc2ccccc2)c1 [Compound 40, Methyl (2E)-3-Methoxy-2-{2′-[[[3″-(1′″-fluoro-2′″-phenyl-1′″-ethenyloxy)phenyl]methylimino]oxy]methylphenyl}propenoate] | 95 | 99 | 100 | 97 | 100 | 100 | 75 | 99 | 100 | 70 | 75 | 100 | 12 | 68 | 100 | 100
COC=C(C(=O)OC)c1ccccc1CON=C(C)c1cccc(OC(F)=Cc2cccc(C)c2)c1 [Compound 41] | 95 | 99 | 100 | 96 | 100 | 100 | 51 | 98 | 100 | 55 | 70 | 100 | 6 | 25 | 100 | 100
COC=C(C(=O)OC)c1ccccc1CON=C(C)c1cccc(OC(F)=Cc2ccc(C)cc2)c1 [Compound 42] | 70 | 98 | 100 | 97 | 100 | 100 | 64 | 58 | 100 | – | – | 100 | – | – | 100 | 96
COC=C(C(=O)OC)c1ccccc1CON=C(C)c1cccc(OC(F)=Cc2cc(C)cc(C)c2)c1 [Compound 44] | 75 | 96 | 100 | 71 | 100 | 100 | 5 | 85 | 100 | – | – | 100 | – | – | 100 | 95
CCc1ccc(C=C(F)Oc2cccc(C(C)=NOCc3ccccc3C(=COC)C(=O)OC)c2)cc1 [Compound 45] | 65 | 95 | 100 | 85 | 99 | 100 | 17 | 41 | 97 | – | – | 100 | – | – | 100 | 93
COC=C(C(=O)OC)c1ccccc1CON=C(C)c1cccc(OC(F)=Cc2ccc(OC)cc2)c1 [Compound 48] | 75 | 99 | 100 | 95 | 100 | 100 | 64 | 41 | 100 | – | – | 100 | – | – | 100 | 96
COC=C(C(=O)OC)c1ccccc1CON=C(C)c1cccc(OC(F)=Cc2ccc(F)cc2)c1 [Compound 51] | 90 | – | 100 | 97 | – | 100 | 52 | – | 100 | – | 88 | 100 | – | – | 100 | 99
COC=C(C(=O)OC)c1ccccc1CON=C(C)c1cccc(OC(F)=Cc2ccc(Cl)c(C)c2)c1 [Compound 52] | 65 | – | 100 | 42 | – | 100 | 52 | – | 97 | – | – | 96 | – | – | 100 | 80
COC=C(C(=O)OC)c1ccccc1CON=C(C)c1cccc(OC(F)=Cc2ccc(Cl)cc2)c1 [Compound 54] | 90 | 97 | 100 | 84 | 99 | 100 | 51 | 97 | 100 | 50 | 80 | 100 | – | – | 100 | 99
